Measured values published in PubChem BioAssay AID2060617 (Molecular Pharmacology Branch, DTP, NCI, 2025).
Several values for one entry are separate records, joined by “and”; a condition that tells them apart may be missing. Equal entries are not always repeated.

Tested on: 485368-065-R4-J2-PDC spheroids with HUVEC/MSC, viability
Test: Anticancer human tumor 485368-065-R4-J2-PDC patient-derived pancreatic carcinoma cell line growth inhibition [CLK]
Conditions: for viability, T/C: stronger effect = lower value
How it was run: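 Multi-cell-type spheroids combined patient-derived tumor cells with HUVEC endothelial cells and human mesenchymal stem cells. Paired agents were dosed in half-log steps down from about clinical Cmax, or from 10 microM where Cmax was unknown.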
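Further: spheroids exposed to compounds for seven days.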
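Wherever viability, T/C is given: 100% = DMSO vehicle control wells.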

With `Nc1ccccc1NC(=O)c1ccc(CNC(=O)OCc2cccnc2)cc1` the viability, T/C (compound 0.0316 µM) was 83.9% and 90.3%, the viability, T/C (compound 0.1 µM) was 105% and 96.6% and the viability, T/C (compound 0.316 µM) was 94.3% and 91.9%. The viability, T/C (compound 1 µM) was 92.6% and 90.3%, the viability, T/C (compound 3.16 µM) was 88.2% and 84.8% and the viability, T/C (compound 10 µM) was 31.5% and 37%. The IC50 (curve of compound) was 6870 nM and 7340 nM.
With `C=CC(=O)Nc1cc(Nc2nccc(-c3cn(C)c4ccccc34)n2)c(OC)cc1N(C)CCN(C)C` + CNC(=O)c1ccc(Nc2nc(OC3CCCC3)c3c(-c4ccc5nc(C)oc5c4)c[nH]c3n2)c(OC)c1 the IC50 (curve of first compound, second compound 0.0316 µM) was greater than 300 nM, the IC50 (curve of first compound, second compound 0.1 µM) was greater than 300 nM and the IC50 (curve of first compound, second compound 0.316 µM) was greater than 300 nM. For the same compound, the IC50 (curve of first compound, second compound 1 µM) was greater than 300 nM, the IC50 (curve of first compound, second compound 3.16 µM) was greater than 300 nM and the IC50 (curve of first compound, second compound 10 µM) was greater than 300 nM. It also gave a viability, T/C (second compound 0.0316 µM, first compound 0.000949 µM) of 84.6%, a viability, T/C (second compound 0.0316 µM, first compound 0.003 µM) of 90% and a viability, T/C (second compound 0.0316 µM, first compound 0.00949 µM) of 88.8%. The viability, T/C (second compound 0.0316 µM, first compound 0.03 µM) was 93.4%, the viability, T/C (second compound 0.0316 µM, first compound 0.0949 µM) was 101% and the viability, T/C (second compound 0.0316 µM, first compound 0.3 µM) was 87.4%. The viability, T/C (second compound 0.1 µM, first compound 0.000949 µM) was 90.1%, the viability, T/C (second compound 0.1 µM, first compound 0.003 µM) was 89% and the viability, T/C (second compound 0.1 µM, first compound 0.00949 µM) was 95.6%. For the same compound, the viability, T/C (second compound 0.1 µM, first compound 0.03 µM) was 90.1%, the viability, T/C (second compound 0.1 µM, first compound 0.0949 µM) was 92.2% and the viability, T/C (second compound 0.1 µM, first compound 0.3 µM) was 98.4%. For the same compound, the viability, T/C (second compound 0.316 µM, first compound 0.000949 µM) was 82%, the viability, T/C (second compound 0.316 µM, first compound 0.003 µM) was 85.1% and the viability, T/C (second compound 0.316 µM, first compound 0.00949 µM) was 81.6%. It also gave a viability, T/C (second compound 0.316 µM, first compound 0.03 µM) of 79.5%, a viability, T/C (second compound 0.316 µM, first compound 0.0949 µM) of 83% and a viability, T/C (second compound 0.316 µM, first compound 0.3 µM) of 78%. It also gave a viability, T/C (second compound 1 µM, first compound 0.000949 µM) of 78.4%, a viability, T/C (second compound 1 µM, first compound 0.003 µM) of 72.6% and a viability, T/C (second compound 1 µM, first compound 0.00949 µM) of 81%. For the same compound, the viability, T/C (second compound 1 µM, first compound 0.03 µM) was 79.4%, the viability, T/C (second compound 1 µM, first compound 0.0949 µM) was 73.5% and the viability, T/C (second compound 1 µM, first compound 0.3 µM) was 70.8%. It also gave a viability, T/C (second compound 3.16 µM, first compound 0.000949 µM) of 69.4%, a viability, T/C (second compound 3.16 µM, first compound 0.003 µM) of 70.9% and a viability, T/C (second compound 3.16 µM, first compound 0.00949 µM) of 66.6%. It also gave a viability, T/C (second compound 3.16 µM, first compound 0.03 µM) of 68.4%, a viability, T/C (second compound 3.16 µM, first compound 0.0949 µM) of 66.8% and a viability, T/C (second compound 3.16 µM, first compound 0.3 µM) of 68.7%. The viability, T/C (second compound 10 µM, first compound 0.000949 µM) was 66.5%, the viability, T/C (second compound 10 µM, first compound 0.003 µM) was 67.6% and the viability, T/C (second compound 10 µM, first compound 0.00949 µM) was 70.1%. The viability, T/C (second compound 10 µM, first compound 0.03 µM) was 67.3%, the viability, T/C (second compound 10 µM, first compound 0.0949 µM) was 68.9% and the viability, T/C (second compound 10 µM, first compound 0.3 µM) was 58.6%.
For `CN1CCN(c2cc(C(=O)Nc3cc4cc(-c5cnn(C)c5)ccc4cn3)ccn2)CC1`, the viability, T/C (compound 0.0316 µM) was 95.6% [middle of 12 runs], the viability, T/C (compound 0.316 µM) was 83% [middle of 12 runs] and the viability, T/C (compound 1 µM) was 0.9% [middle of 11 runs]. For the same compound, the viability, T/C (compound 3.16 µM) was 1.39% [middle of 12 runs], the viability, T/C (compound 10 µM) was 1.68% [middle of 11 runs] and the IC50 (compound alone, run of 08/14/2023) was 504 nM [middle of 12 runs].
For `O=c1[nH]cc(F)c(=O)[nH]1`, the viability, T/C (compound 0.0316 µM) was 95.5% and 88.4%, the viability, T/C (compound 0.1 µM) was 96.6% and 84.4% and the viability, T/C (compound 0.316 µM) was 95.6% and 87.4%. The viability, T/C (compound 1 µM) was 96.9% and 95.8%, the viability, T/C (compound 3.16 µM) was 96.6% and 96% and the viability, T/C (compound 10 µM) was 88.5% and 82.3%. The IC50 (curve of compound) was greater than 10000 nM.
